Patent US12233089B2, “Foods to promote better health and/or to maintain homeostasis and method of production thereof” (Vector Vitale IP LLC, priority 2021, dated 2025)
Read-outs that look alike come from different tables or passages of the source. Marks after values point to notes of the source that are not given here.

Assays:
[1] = test system: pro-inflammatory (IL-1, IL-6, IL-12, IFN-γ) and anti-inflammatory (IL-4, IL-10, TGF) cytokines; conditions: adipose tissue, M ± m, n = 10
From the text: Given the above, the next phase was to find out whether the administration of Zn-64 stable isotope in aspartate form influences the cytokine profile in obese animals.

P. aeruginosa ATCC 27853 [2] = assay: Minimum bactericidal concentration (MBC), P. aeruginosa; format: cell-based; conditions: 37° C. 24 h, Table 4
Method: (§1) To evaluate the bactericidal action of the antibacterial composition based on light isotope ^64Zne the minimum bactericidal concentration (MBC) was determined by plating out 0.1 ml of the contents of each tube containing the antibacterial composition on Mueller-Hinton medium. The incubation was at 37° C. for 24 h.
(§2) The MBC of the test samples was determined as the lowest concentration at which there was no growth on Mueller-Hinton agar medium.
(§3) The conditions of the experiment were like those for Zn-64 compound.

MMP-2 = assay: Activities of latent and active forms of metalloproteinase 2 in MM-4 cells
[3] = test system: rats with LPS-induced Parkinson's disease; assay: LPS-induced Parkinson's disease in rats; format: in vivo
From the text: Effects of ^64Zn-KLS-1 on Local and Systemic Immune Reactivity, Behavioural and Motor Functions in Rats with LPS-Induced Experimental Parkinsonism

Epstein-Barr virus = assay: Cytotoxicity and antiviral activity against Epstein-Barr virus
MM-4 cells = assay: Immunocytochemistry of Bcl-2, Bax and p53 expression in MM-4 cells; format: cell-based, mouse
type 1 diabetes = assay: Development of type 1 diabetes in vivo
[4] = test system: animals on a high-fat diet (DIO); assay: Diet induced obesity model (animals on a high-fat diet); format: in vivo, rats
From the text: The preclinical study of the effects of Zn-64 Asp on key pathogenetic links in the development and progression of obesity in diet-induced obesity models provides strong ground for efficient use of Zn-64 Asp as therapeutic agent in the treatment of overweight and obese patients.

[5] = test system: pro-inflammatory (IL-1, IL-6, IL-12, IFN-γ) and anti-inflammatory (IL-4, IL-10, TGF) cytokines; assay: Cytokine profile in the serum of experimental animals; format: in vivo, rats; conditions: M ± m, n = 10
From the text: As mentioned above, the pathogenesis of obesity is accompanied by a systemic chronic inflammatory process, the intensity of which can be assessed by the serum levels of pro- and anti-inflammatory cytokines.

S. aureus ATCC 25923 = assay: Minimum bactericidal concentration (MBC), S. aureus; format: cell-based; conditions: 37° C. 24 h, Table 4
Method: as §1, §2, §3

MMP-9 = assay: Activities of latent and active forms of metalloproteinase 9 in MM-4 cells; conditions: 16.69 μg/ml
[6] = test system: rat models of Aβ1-40-induced AD; assay: Rat model of Alzheimer's disease induced by infusion of Aβ 1-40; format: in vivo, rats
From the text: The Effect of ^64Zn-Asp on Cognitive Symptomatology in Rats with Different Models of Alzheimer's Disease Induced by Infusion of a Mix of Beta-Amyloid Peptides

[7] = Glucose and pancreatic islets in vivo, model not given (section on obesity and type 1 & 2 diabetes)
[8] = test system: MM-4 mouse melanoma cells; assay: In vitro analysis of viability of MM-4 mouse melanoma cells; format: cell-based
From the text: A second study was done on mouse model of lymphocytic leukemia, strain of L1210 leukemia cells, mouse melanoma model (MM-4 cell line derived from mouse melanoma cells of strain B16). Typical results are below.

P. aeruginosa ATCC 27853 [9] = assay: MIC (bacteriostatic activity), P. aeruginosa; format: cell-based
From the text: as §3

E. coli ATCC 25922 = assay: Minimum bactericidal concentration (MBC), E. coli; format: cell-based; conditions: 37° C. 24 h, Table 4
Method: as §1, §2, §3

[10] = LPS-induced Parkinson's disease
[11] = animals with AD, therapeutic administration

## NC(CC(=O)[O-])C(=O)[O-].[64Zn+2] (stereo not drawn) [Zn64 Aspartate, ^64Zne aspartate]
[1]; control animals (C)
  IFN-γ level: 5.0 ± 0.8^ RU/mg protein
  IL-1 level: 4.9 ± 1.7^ RU/mg protein
  IL-4 level: 5.0 ± 0.4^ RU/mg protein
  IL-6 level: 5.4 ± 0.3^ RU/mg protein
  IL-10 level: 4.9 ± 0.2^ RU/mg protein
  IL-12 level: 1.0 ± 0.03 RU/mg protein
  TGF level: 5.1 ± 0.6^ RU/mg protein
[1]; diet induced obesity (DIO)
  IFN-γ level: 4.9 ± 0.8 RU/mg protein
  IL-1 level: 5.8 ± 1.8 RU/mg protein
  IL-4 level: 5.1 ± 1.2 RU/mg protein
  IL-6 level: 6.1 ± 0.7 RU/mg protein
  IL-10 level: 5.8 ± 0.8 RU/mg protein
  IL-12 level: 1.99 ± 0.01 RU/mg protein
  TGF level: 5.2 ± 0.9 RU/mg protein
P. aeruginosa ATCC 27853 [2]
  MBC: >750 mcg ^64Zne/ml
MMP-2; 16.69 μg/ml
  decrease in the activity of active MMP-2 compared with the control: 66.8%
  decrease in the activity of latent pro-MMP-2 compared with the control: 76.5%
MMP-2; 25.03 μg/ml
  suppression of the activity of MMP-2 compared with the control: 76%
[3]; [10]
  dopaminergic neuron loss: Prevention
  harmful side effects: absence
  local and systemic inflammation: Inhibition
  metabolic activity of microglia: increase
[3]; LPS-induced Parkinson's disease, rats
  number of dopaminergic neurons in the substantia nigra: virtually full restoration
[3]; therapeutic administration, LPS-induced parkinsonism
  systemic inflammatory responses: reduces
Epstein-Barr virus
  assessment of cytotoxicity and antiviral activity for anti-EBV infection: most promising
MM-4 cells; 16.69 μg/ml
  decrease in the expression of Bcl-2 vs. control: 69.5%
  expression of pro-apoptotic proteins Bax and p53: did not have any effect
MM-4 cells; 25.03 μg/ml
  expression level of p53 (Y-5 clone): does not influence
  increased expression level of Bax compared with the control: 8.9 times
  increased expression level of p53 (DO-7 clone) compared with the control: 9.5 times
MM-4 cells; concentration not given
  expression of anti-apoptotic protein Bcl-2: does not have any effect
Type 1 diabetes
  decrease of glucose concentration: 26%
  decrease of glycosylated hemoglobin: 30%
  increase of serum insulin content: 13%
[4]; DIO group
  fatty degeneration (exocrine part of the pancreas): Disappearance
[4]; animal models of obesity
  divalent metal ions (zinc, copper, manganese) in muscles, kidneys and liver: restoration of their normal physiological levels
[4]; animals on a high fat diet
  activity of antioxidant enzymes (superoxide dismutase and catalase): increased activity
  levels of lipid peroxidation products and protein oxidative modification: decrease
[4]; animals on a high-fat diet
  central and peripheral serotonin levels compared to untreated animal models of obesity: restoration
  decrease of the area of hepatocytes compared to the group with obesity: 41%
  increase of the cross-sectional surface area of the islets of Langerhans compared with the obesity group: 43%
  lipid metabolism: Improvement
  serotonin levels in the brain: An increase
  weight and the amount of food consumed compared to the untreated animals: Reduction
[5]; control animals (C)
  IFN-γ level: 4.6 ± 0.6 RU/mg protein
  IL-1 level: 3.5 ± 0.7 RU/mg protein
  IL-4 level: 4.6 ± 0.8 RU/mg protein
  IL-6 level: 4.3 ± 0.2^ RU/mg protein
  IL-10 level: 4.1 ± 0.5 RU/mg protein
  IL-12 level: 0.3 ± 0.04 RU/mg protein
  TGF level: 4.1 ± 0.4 RU/mg protein
[5]; diet induced obesity (DIO)
  IFN-γ level: 4.1 ± 1.2 RU/mg protein
  IL-1 level: 4.2 ± 0.4 RU/mg protein
  IL-4 level: 5.6 ± 1.6 RU/mg protein
  IL-6 level: 5.1 ± 0.4 RU/mg protein
  IL-10 level: 6.8 ± 1.1 # RU/mg protein
  IL-12 level: 2.4 ± 0.06 # RU/mg protein
  TGF level: 5.7 ± 0.3 # RU/mg protein
S. aureus ATCC 25923
  MBC: 0.023* mcg ^64Zne/ml
MMP-9
  decrease in the activity of active MMP-9 compared with the control: 23.8%
  decrease in the activity of latent pro-MMP-9 compared with the control: 61.2%
[6]; AD models
  cognitive function: significantly improved
[6]; AD rats treated for 10 days
  body weight, water and feed intake: restored
[6]; Aβ1-40-induced AD
  neuroinflammation: almost complete resolution
[6]; Aβ1-40 AD rats, hippocampal dopaminergic neurons
  staining intensity of TH-immuno-positive cells: increased
[6]; [11]
  absolute number of circulating leukocytes: complete normalization
  neutrophilic lymphocytic coefficient (NLC): complete normalization
[7]
  glucose concentration compared to the control group: drop
  increase of insulin producing pancreatic islets area: more than 100%
[8]; 16.69 μg/ml
  suppressed proliferation of MM-4 cells compared with the control: 22.2%
[8]; 25.03 μg/ml
  reduction in the number of live melanoma cells compared with the control: 49.2%
[8]; MM-4 cells
  IC20: 16.69 µg/mL
  IC50: 25.03 µg/mL
P. aeruginosa ATCC 27853 [9]
  bacteriostatic activity (in words): best results
E. coli ATCC 25922
  MBC: 0.73* mcg ^64Zne/ml
